In patent publication US8134007B2, “Pyridine derivatives” (Pfizer Inc., priority 2007, dated 2012):

Legend:
Type in all cases: cell-based
[1] = test system: tetrodotoxin-sensitive voltage-gated sodium channels including NaV1.2, NaV1.3 and NaV1.7; test: TTX-S Assay (VIPR, SHSY-5Y cell line, veratridine opener); details: read-out: TTX-S IC50, veratridine 50 μM opener, average of replicates
Human Nav1.5 = molecular target: T1, Human Nav1.5 (Homo sapiens, UniProt Q14524); test: Nav1.5 Assay (VIPR, HEK293 cells); details: HEK293 cells expressing Human Nav1.5; average of replicates; read-out: Nav1.5 IC50
T1 construct: expressed in transfected cells; host or cells: HEK293
T1 sequence (Q14524 whole entry): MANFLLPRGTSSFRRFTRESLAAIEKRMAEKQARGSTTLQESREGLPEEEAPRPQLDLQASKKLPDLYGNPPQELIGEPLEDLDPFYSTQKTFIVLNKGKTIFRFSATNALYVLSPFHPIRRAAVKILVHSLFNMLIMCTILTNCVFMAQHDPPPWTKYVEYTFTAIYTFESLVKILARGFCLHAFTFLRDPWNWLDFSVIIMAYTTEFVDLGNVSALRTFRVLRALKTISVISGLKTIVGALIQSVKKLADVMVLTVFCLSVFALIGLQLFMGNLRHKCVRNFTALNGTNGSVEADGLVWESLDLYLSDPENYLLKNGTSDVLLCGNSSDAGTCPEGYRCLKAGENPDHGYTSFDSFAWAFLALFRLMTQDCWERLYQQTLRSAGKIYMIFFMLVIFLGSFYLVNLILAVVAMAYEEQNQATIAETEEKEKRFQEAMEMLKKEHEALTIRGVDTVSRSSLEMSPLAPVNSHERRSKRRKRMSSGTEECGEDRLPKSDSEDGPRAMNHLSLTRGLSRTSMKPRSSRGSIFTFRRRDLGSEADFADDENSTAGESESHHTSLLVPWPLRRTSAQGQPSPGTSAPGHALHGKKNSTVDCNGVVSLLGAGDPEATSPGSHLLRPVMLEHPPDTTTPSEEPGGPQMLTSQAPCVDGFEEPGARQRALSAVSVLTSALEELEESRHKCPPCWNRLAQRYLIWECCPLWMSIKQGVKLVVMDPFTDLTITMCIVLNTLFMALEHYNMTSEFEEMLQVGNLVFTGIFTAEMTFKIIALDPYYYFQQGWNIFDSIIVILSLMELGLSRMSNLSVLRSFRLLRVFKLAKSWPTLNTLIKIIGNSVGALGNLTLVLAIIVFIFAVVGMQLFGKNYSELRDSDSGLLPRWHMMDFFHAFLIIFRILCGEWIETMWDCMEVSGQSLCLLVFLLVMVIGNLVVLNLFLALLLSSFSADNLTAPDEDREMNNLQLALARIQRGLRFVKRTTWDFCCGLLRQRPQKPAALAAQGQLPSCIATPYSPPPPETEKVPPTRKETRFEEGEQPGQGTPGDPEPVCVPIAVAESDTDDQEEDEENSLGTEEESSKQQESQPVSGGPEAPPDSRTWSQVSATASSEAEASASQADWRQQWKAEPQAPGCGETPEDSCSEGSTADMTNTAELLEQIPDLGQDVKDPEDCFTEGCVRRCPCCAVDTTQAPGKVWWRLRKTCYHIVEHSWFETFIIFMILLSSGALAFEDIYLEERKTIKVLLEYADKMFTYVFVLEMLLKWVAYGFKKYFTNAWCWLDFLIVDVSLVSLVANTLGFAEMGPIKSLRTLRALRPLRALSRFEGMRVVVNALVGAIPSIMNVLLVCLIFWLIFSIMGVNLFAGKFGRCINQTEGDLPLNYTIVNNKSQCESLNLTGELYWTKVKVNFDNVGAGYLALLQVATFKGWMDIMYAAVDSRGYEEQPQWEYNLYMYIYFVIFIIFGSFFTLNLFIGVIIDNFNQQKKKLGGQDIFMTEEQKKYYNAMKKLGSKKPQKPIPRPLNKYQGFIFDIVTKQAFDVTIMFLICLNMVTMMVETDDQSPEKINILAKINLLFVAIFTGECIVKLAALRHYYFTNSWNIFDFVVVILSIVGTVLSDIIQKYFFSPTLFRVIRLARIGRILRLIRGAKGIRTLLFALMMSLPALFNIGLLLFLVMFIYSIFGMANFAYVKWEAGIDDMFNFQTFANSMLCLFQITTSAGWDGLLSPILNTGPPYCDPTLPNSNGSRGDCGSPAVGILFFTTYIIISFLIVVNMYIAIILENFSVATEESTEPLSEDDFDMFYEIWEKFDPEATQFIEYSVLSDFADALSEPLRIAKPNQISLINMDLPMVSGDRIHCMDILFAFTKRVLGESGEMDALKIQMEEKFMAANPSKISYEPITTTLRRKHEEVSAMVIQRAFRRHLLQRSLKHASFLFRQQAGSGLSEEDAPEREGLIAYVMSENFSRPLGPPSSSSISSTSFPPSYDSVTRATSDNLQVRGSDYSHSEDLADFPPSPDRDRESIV
Method: The Nav1.5 assay is performed in HEK293 cells expressing Human Nav1.5 in the same way as the Nav1.8 assay.
Where replicate experiments were conducted resulting in multiple sets of data for a test compound, the data presented represent the average value from all replicate experiments.

Human Nav1.8 = molecular target: T2, Human Nav1.8 (Homo sapiens, UniProt Q9Y5Y9); test: VIPR Assay for Nav1.8 Compounds (FRET membrane potential, deltamethrin opener); details: VIPR FRET membrane potential assay, deltamethrin opener; average of replicates; read-out: Nav1.8 IC50
T2 construct: expressed in transfected cells; host or cells: HEK293
T2 sequence (Q9Y5Y9 whole entry): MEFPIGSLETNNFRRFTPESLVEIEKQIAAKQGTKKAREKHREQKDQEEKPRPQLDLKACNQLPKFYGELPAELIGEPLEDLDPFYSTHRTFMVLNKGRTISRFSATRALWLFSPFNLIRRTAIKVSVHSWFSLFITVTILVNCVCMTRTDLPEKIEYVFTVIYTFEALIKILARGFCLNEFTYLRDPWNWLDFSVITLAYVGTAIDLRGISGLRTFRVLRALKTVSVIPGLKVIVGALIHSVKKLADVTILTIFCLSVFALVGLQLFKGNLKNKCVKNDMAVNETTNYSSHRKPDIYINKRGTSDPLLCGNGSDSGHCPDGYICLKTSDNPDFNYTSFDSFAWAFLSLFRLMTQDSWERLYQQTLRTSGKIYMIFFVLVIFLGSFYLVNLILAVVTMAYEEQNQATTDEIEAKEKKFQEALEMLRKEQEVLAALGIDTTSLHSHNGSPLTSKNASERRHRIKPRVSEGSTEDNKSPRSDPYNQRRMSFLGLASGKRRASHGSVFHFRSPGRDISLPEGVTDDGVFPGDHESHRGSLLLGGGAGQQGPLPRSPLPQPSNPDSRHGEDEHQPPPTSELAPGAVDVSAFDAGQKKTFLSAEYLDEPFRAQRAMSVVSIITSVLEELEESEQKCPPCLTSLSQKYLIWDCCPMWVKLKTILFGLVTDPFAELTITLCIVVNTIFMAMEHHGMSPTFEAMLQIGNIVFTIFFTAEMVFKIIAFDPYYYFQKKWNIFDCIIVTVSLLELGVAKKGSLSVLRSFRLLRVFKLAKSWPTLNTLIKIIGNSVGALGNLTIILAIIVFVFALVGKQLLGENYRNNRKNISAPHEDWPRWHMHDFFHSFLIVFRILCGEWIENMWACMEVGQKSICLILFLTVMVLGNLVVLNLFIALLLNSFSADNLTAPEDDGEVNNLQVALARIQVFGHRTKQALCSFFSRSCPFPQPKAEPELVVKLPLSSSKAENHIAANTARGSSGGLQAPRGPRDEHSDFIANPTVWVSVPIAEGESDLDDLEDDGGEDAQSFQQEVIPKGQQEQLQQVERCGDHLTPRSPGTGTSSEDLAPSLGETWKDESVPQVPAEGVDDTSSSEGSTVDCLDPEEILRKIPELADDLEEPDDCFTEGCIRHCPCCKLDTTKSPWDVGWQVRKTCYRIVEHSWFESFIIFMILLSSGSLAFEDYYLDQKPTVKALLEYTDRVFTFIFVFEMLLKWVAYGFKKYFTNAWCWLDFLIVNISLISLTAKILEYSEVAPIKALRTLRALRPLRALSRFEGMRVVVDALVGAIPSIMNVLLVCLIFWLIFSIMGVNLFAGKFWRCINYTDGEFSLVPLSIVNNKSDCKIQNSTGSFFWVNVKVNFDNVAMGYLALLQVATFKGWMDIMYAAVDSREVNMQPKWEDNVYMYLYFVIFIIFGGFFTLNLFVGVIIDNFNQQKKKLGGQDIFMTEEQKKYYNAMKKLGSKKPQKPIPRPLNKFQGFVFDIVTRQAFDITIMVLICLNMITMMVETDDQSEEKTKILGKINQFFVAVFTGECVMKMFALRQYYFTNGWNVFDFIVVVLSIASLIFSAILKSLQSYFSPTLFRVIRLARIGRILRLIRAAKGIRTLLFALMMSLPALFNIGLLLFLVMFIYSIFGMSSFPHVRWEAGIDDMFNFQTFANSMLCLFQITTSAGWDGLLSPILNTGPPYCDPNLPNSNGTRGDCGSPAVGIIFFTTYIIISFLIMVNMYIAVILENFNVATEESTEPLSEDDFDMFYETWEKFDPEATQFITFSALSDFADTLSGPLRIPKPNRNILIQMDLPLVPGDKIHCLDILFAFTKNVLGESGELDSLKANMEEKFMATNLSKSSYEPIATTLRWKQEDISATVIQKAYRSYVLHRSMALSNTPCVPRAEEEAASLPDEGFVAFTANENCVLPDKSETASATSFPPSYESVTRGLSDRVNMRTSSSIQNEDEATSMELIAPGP

SMILES	IC50 [1] [µM]	IC50 (Human Nav1.5) [µM]	IC50 (Human Nav1.8) [µM]
Cc1oncc1C(=O)Nc1ccc(-c2ccccc2Cl)c(N)n1 [Example 20, N-[6-Amino-5-(2-chlorophenyl)pyridin-2-yl]-5-methylisoxazole-4-carboxamide]	14	17	1
Cc1oncc1C(=O)Nc1ccc(-c2ccccc2OC(F)(F)F)c(N)n1 [Example 23, N-{6-Amino-5-[2-(trifluoromethoxy)phenyl]pyridin-2-yl}-5-methylisoxazole-4-carboxamide]	9.4	17	1.6
COc1ccc(Cl)c(-c2ccc(NC(=O)c3conc3C)nc2N)c1 [Example 24, N-[6-Amino-5-(2-chloro-5-methoxyphenyl)pyridin-2-yl]-3-methylisoxazole-4-carboxamide]	11	8.5	0.44
Cc1nocc1C(=O)Nc1ccc(-c2ccccc2Cl)c(N)n1 [Example 26, N-[6-Amino-5-(2-chlorophenyl)pyridin-2-yl]-3-methylisoxazole-4-carboxamide]	8.5	11	0.56
COc1cc(Cl)cc(-c2ccc(NC(=O)c3conc3C)nc2N)c1Cl [Example 27, N-[6-Amino-5-(2,5-dichloro-3-methoxyphenyl)pyridin-2-yl]-3-methylisoxazole-4-carboxamide]	3.2	10	0.37
COc1cc(Cl)c(Cl)c(-c2ccc(NC(=O)c3conc3C)nc2N)c1 [Example 29, N-[6-Amino-5-(2,3-dichloro-5-methoxyphenyl)pyridin-2-yl]-3-methylisoxazole-4-carboxamide]	8.2	6.4	0.55
Cc1nocc1C(=O)Nc1ccc(-c2cc(Cl)cc3c2OCCO3)c(N)n1 [Example 30, N-[6-Amino-5-(7-chloro-2,3-dihydro-1,4-benzodioxin-5-yl)pyridin-2-yl]-3-methylisoxazole-4-carboxamide]	28	16	1.3
Cc1nocc1C(=O)Nc1ccc(-c2cc(Cl)cc(Cl)c2)c(N)n1 [Example 31, N-[6-Amino-5-(3,5-dichlorophenyl)pyridin-2-yl]-3-methylisoxazole-4-carboxamide]	20	30	3.9
Cc1nocc1C(=O)Nc1ccc(-c2cc(Cl)ccc2OC(F)(F)F)c(N)n1 [Example 32, N-{6-Amino-5-[5-chloro-2-(trifluoromethoxy)phenyl]pyridin-2-yl}-3-methylisoxazole-4-carboxamide]	2.6	7.8	0.64
Cc1nocc1C(=O)Nc1ccc(-c2ccccc2F)c(N)n1 [Example 33, N-[6-Amino-5-(2-fluorophenyl)pyridin-2-yl]-3-methylisoxazole-4-carboxamide]	23	> 32	6.5
Cc1nocc1C(=O)Nc1ccc(-c2cc(F)ccc2F)c(N)n1 [Example 34, N-[6-Amino-5-(2,5-difluorophenyl)pyridin-2-yl]-3-methylisoxazole-4-carboxamide]	19	16	3.1
Cc1nocc1C(=O)Nc1ccc(-c2cccc3c2OCCO3)c(N)n1 [Example 35, N-[6-Amino-5-(2,3-dihydro-1,4-benzodioxin-5-yl)pyridin-2-yl]-3-methylisoxazole-4-carboxamide]	> 32	> 32	11
Cc1nocc1C(=O)Nc1ccc(-c2cc(OC(F)(F)F)ccc2F)c(N)n1 [Example 36, N-{6-Amino-5-[2-fluoro-5-(trifluoromethoxy)phenyl]pyridin-2-yl}-3-methylisoxazole-4-carboxamide]	2.2	6.4	1.3
Cc1nocc1C(=O)Nc1ccc(-c2cc(OC(F)(F)F)ccc2Cl)c(N)n1 [Example 37, N-{6-Amino-5-[2-chloro-5-(trifluoromethoxy)phenyl]pyridin-2-yl}-3-methylisoxazole-4-carboxamide]	1.2	3.6	0.44
Cc1nocc1C(=O)Nc1ccc(-c2ccccc2OC(F)F)c(N)n1 [Example 38, N-{6-Amino-5-[2-(difluoromethoxy)phenyl]pyridin-2-yl}-3-methylisoxazole-4-carboxamide]	26	25	2.6
Cc1nocc1C(=O)Nc1ccc(-c2cc(F)ccc2C(F)(F)F)c(N)n1 [Example 39, N-{6-Amino-5-[5-fluoro-2-(trifluoromethyl)phenyl]pyridin-2-yl}-3-methylisoxazole-4-carboxamide]	13	21	0.93
Cc1nocc1C(=O)Nc1ccc(-c2ccc(F)cc2)c(N)n1 [Example 40, N-[6-Amino-5-(4-fluorophenyl)pyridin-2-yl]-3-methylisoxazole-4-carboxamide]	30	31	20

SMILES	IC50 [1] [µM]	IC50 (Human Nav1.5) [µM]	IC50 (Human Nav1.8) [µM]
Cc1nocc1C(=O)Nc1ccc(-c2cc(F)ccc2Cl)c(N)n1 [Example 41, N-[6-Amino-5-(2-chloro-5-fluorophenyl)pyridin-2-yl]-3-methylisoxazole-4-carboxamide]	11	12	0.25
Cc1nocc1C(=O)Nc1ccc(-c2ccccc2C(F)F)c(N)n1 [Example 42, N-[6-Amino-5-[2-(difluoromethyl)phenyl]pyridin-2-yl]-3-methylisoxazole-4-carboxamide]	22	> 32	2.5
Cc1nocc1C(=O)Nc1ccc(-c2ccccc2OC(F)(F)F)c(N)n1 [Example 43, N-{6-Amino-5-[2-(trifluoromethoxy)phenyl]pyridin-2-yl}-3-methylisoxazole-4-carboxamide]	10	12	0.32
Cc1nonc1C(=O)Nc1ccc(-c2cc(F)ccc2Cl)c(N)n1 [Example 47, N-[6-Amino-5-(2-chloro-5-fluorophenyl)pyridin-2-yl]-4-methyl-1,2,5-oxadiazole-3-carboxamide]	6.1	7.4	1.4
COc1cc(Cl)c(Cl)c(-c2ccc(NC(=O)c3nonc3C)nc2N)c1 [Example 48, N-[6-Amino-5-(2,3-dichloro-5-methoxyphenyl)pyridin-2-yl]-4-methyl-1,2,5-oxadiazole-3-carboxamide]	3.3	22	0.76
Cc1nonc1C(=O)Nc1ccc(-c2ccccc2OC(F)(F)F)c(N)n1 [Example 50, N-{6-Amino-5-[2-(trifluoromethoxy)phenyl]pyridin-2-yl}-4-methyl-1,2,5-oxadiazole-3-carboxamide]	9.8	19	3.1
CCn1nccc1C(=O)Nc1ccc(-c2cc(OC)ccc2Cl)c(N)n1 [Example 52, N-[6-Amino-5-(2-chloro-5-methoxyphenyl)pyridin-2-yl]-1-ethyl-1H-pyrazole-5-carboxamide]	6.4	16	0.95
CCn1nccc1C(=O)Nc1ccc(-c2ccccc2Cl)c(N)n1 [Example 53, N-[6-Amino-5-(2-chlorophenyl)pyridin-2-yl]-1-ethyl-1H-pyrazole-5-carboxamide]	15	22	2.3
CCn1nccc1C(=O)Nc1ccc(-c2cc(F)ccc2Cl)c(N)n1 [Example 54, N-[6-Amino-5-(2-chloro-5-fluorophenyl)pyridin-2-yl]-1-ethyl-1H-pyrazole-5-carboxamide]	18	20	1.2
CCn1nccc1C(=O)Nc1ccc(-c2ccc(F)cc2Cl)c(N)n1 [Example 55, N-[6-Amino-5-(2-chloro-4-fluorophenyl)pyridin-2-yl]-1-ethyl-1H-pyrazole-5-carboxamide]	> 32	> 32	23
CCn1nccc1C(=O)Nc1ccc(-c2cc(Cl)ccc2Cl)c(N)n1 [Example 56, N-[6-Amino-5-(2,5-dichlorophenyl)pyridin-2-yl]-1-ethyl-1H-pyrazole-5-carboxamide]	8.1	17	2.4
CCn1nccc1C(=O)Nc1ccc(-c2cc(F)ccc2C(F)(F)F)c(N)n1 [Example 57, N-{6-Amino-5-[5-fluoro-2-(trifluoromethyl)phenyl]pyridin-2-yl}-1-ethyl-1H-pyrazole-5-carboxamide]	21	> 32	3.7
CCn1nccc1C(=O)Nc1ccc(-c2cccc(F)c2Cl)c(N)n1 [Example 58, N-[6-Amino-5-(2-chloro-3-fluorophenyl)pyridin-2-yl]-1-ethyl-1H-pyrazole-5-carboxamide]	17	31	9.3
CCn1nccc1C(=O)Nc1ccc(-c2ccccc2OC(F)(F)F)c(N)n1 [Example 59, N-{6-Amino-5-[2-(trifluoromethoxy)phenyl]pyridin-2-yl}-1-ethyl-1H-pyrazole-5-carboxamide]	17	31	3.6
CCn1nccc1C(=O)Nc1ccc(-c2ccccc2C(F)(F)F)c(N)n1 [Example 60, N-{6-Amino-5-[2-(trifluoromethyl)phenyl]pyridin-2-yl}-1-ethyl-1H-pyrazole-5-carboxamide]	> 32	20	4.3
CCn1nccc1C(=O)Nc1ccc(-c2cc(OC)cc(Cl)c2Cl)c(N)n1 [Example 61, N-[6-Amino-5-(2,3-dichloro-5-methoxyphenyl)pyridin-2-yl]-1-ethyl-1H-pyrazole-5-carboxamide]	9.7	9.7	1.3
